One assay concerns MC38-Ova tumour. Put plainly: Adoptive transfer of agonist-treated OTI T cells into MC38-Ova tumour bearing Rag2 KO mice, Cleaved Caspase 3 immunohistochemistry. Format: in vivo. Conditions: T cells re-stimulated in vitro with agonist before transfer; tumours excised 24 hours after transfer. As to the method: FIG. 13. […] Cytotoxic OTI T cells were re-stimulated in vitro in the presence of FPL 64176 or carrier control before adoptive transfer into MC38-Ova tumour bearing Rag2 KO mice via tail vein injection. 24 hours after the adoptive transfer, tumours were excised and analysed by immunohistochemistry for Cleaved Caspase 3 (A). 3 mice per condition, % CC3 over whole tumour area from all mice. (B) Repeat experiment with 3-4 mice per condition. Each data point represents the average CC3 staining of 3 separate tumour sections. Overall CC3 staining (top panel) and weak, moderate, and strong CC3 staining (bottom row), respectively, are shown.
As described above, the present invention may find use in adoptive transfer. To investigate the applicability of Cav channel agonist treatment in an adoptive transfer treatment regime, cytotoxic OTI T cells were re-stimulated in vitro in the presence of FPL 64176 or carrier control before adoptive transfer into MC38-Ova tumour bearing Rag2 KO mice via tail vein injection. 24 hours after the adoptive transfer, tumours were excised and analysed by immunohistochemistry for Cleaved Caspase 3. FIGS. 13A&B indicate that treatment of tumour-specific T cells with a Cav channel agonist prior to adoptive transfer leads to increased tumour cell killing compared to adoptive transfer with T cells that have not been treated with a Cav channel agonist.

For a further assay, the system named is K562 target cells. Description: LDH killing assay, NK-92 cells with K562 target cells. Conditions: 10 μM, vs carrier control. The assay is classed as cell-based, human. As to the method:
FIG. 5. L-type Cav channel agonists increase GLI1 expression in the human NK cell line NK-92 and promote specific tumour cell killing. (A) NK-92 cells were stimulated using an anti-NKp46 mAb for 4 hours in the presence of 10 μM FPL 64176, and GLI1 expression was assessed using qRT-PCR. Data is n=4 independent experiments. (B) NK-92 cells were stimulated using an anti-NKp46 mAb for 4 hours in the presence of 100 μM Bay K8644, and GLI1 expression was assessed using qRT-PCR. Data is n=3 independent experiments. […]
FIG. 7. […] Killing of K562 tumour cells was assessed after 24 h by LDH killing assay. […]
In order to establish whether an increase in GLI1 expression is correlated with an increase in NK-92 cell effector function, NK-92 were co-cultured with K562 myelogenous leukaemia cells in the presence of 10 μM FPL 64176 or carrier control, at the effector:target ratios indicated in FIG. 5C. Cell killing was assessed using the LDH assay, as previously described.
To determine if the increased specific cell killing seen in Gorlin patients can be achieved by engineering cells to express a gain-of-function mutation resulting in increased Gli1 signalling, NK-92 cells were engineered to stably express the I756T GOF mutation in Cav1.4. […] Killing of K562 tumour cells was assessed after 24 h by LDH killing assay. […]

In the case of `COC(=O)c1c(C)[nH]c(C)c1C(=O)c1ccccc1Cc1ccccc1` [FPL 64176], in the assay with MC38-Ova tumour, the “tumour cell death in vivo (Cleaved Caspase 3 staining)” value is recorded as “increased tumour cell death”. Besides, in the assay with K562 target cells, the “target cell killing by NK-92 cells” value is given as “enhanced”.

These data come from patent US20250222028A1, “ENGINEERED IMMUNE CELL PLATFORM” (Cancer Research Technology Limited, priority 2022, published 2025).
